# “Also recorded” adds a separate entry of the source.
# Columns and labels:
# [1] = tested on: CHME-5 (human microglial cells); experiment: MTS cytotoxicity assay, CHME-5; assay type: cell-based; details: for cell survival: CHME-5, 100 μM, all time points
# Description: (§1) The early toxicity assays included in vitro cytotoxicity against two human cell lines, namely MRC-5 (human normal lung fibroblasts) and CHME-5 (human microglial cells) and an in vivo zebrafish model. The cell lines MRC-5 and CHME-5 were exposed for 24, 48, and 72 h to increasing concentrations of the tested compounds (from 0.1 to 100 µM).
# (§2) A CellTiter 96® AQueous One Solution Cell Proliferation Assay (Promega, Milan, Italy) was used on cells seeded onto a 96-well plate at a density of 9 × 10^3 cells per well. The effect of the test compound was evaluated at four different concentrations (0.1, 1, 10, and 100 μM) after 24 h of continued exposure. Two independent experiments were performed for each concentration. The optical density (OD) of the treated and untreated cells was determined at a wavelength of 490 nm using a plate reader. The data were elaborated with the GraphPad Prism 5 program.
# PC12 cells = experiment: NGF-induced neurite outgrowth assay in PC12 cells; assay type: cell-based; details: for effect on percentage of differentiated PC12 cells, co-administration with PRE-084: 0.25 μM and 2.5 μM with 10 μM PRE-084, vs PRE-084; for effect on NGF-induced neurite outgrowth, compound alone: 0.25 μM and 2.5 μM, vs NGF
# Description: At 80% confluence, the cells were either split to allow a further culture expansion or plated onto 48-well flat-bottom plates previously coated with poly-L-ornithine (Sigma Aldrich, Milan, Italy) at the final concentration of 10 μg/cm^2. The cells were plated at low density (2500 cells/well) to allow proper neurite elongation. The PC12 cells were mechanically detached from the flask to avoid cell-surface receptor cleavage and to preserve the correct binding of NGF to the TrkA receptors. To minimize detachment stress, the cells were left in PM for 24 h to recover. […] PRE-084 (10 µM), an S1R agonist, was used to verify that the effects of the selected compounds were due to the S1R modulation. In CTR conditions, the cells were incubated with the drug vehicle. For all the ligands, two replicates per concentration were performed in at least 3 experiments with different PC12 batches.
# After 72 h incubation in DM, the cells were fixed with a 4% paraformaldehyde solution (pH 7.4). To allow the neurite visualization with a bright-field microscope, the cells were stained with the Harris Hematoxylin solution (Sigma Aldrich). After staining, images of six fields per well were acquired with a digital camera linked to a bright-field inverted microscope (Optika) (20× magnification). […] Only the cells bearing a neurite as long as their soma’s diameter were identified as differentiated cells. The number of differentiated cells was expressed as the percentage of differentiated cells over the total number of cells.
# HeLa cells = experiment: AQP-mediated osmotic water permeability assay (stopped-flow light scattering); details: pre-treatment 20 μM, heat stress 42 °C 3 h
# Description: As an orthogonal assay to determine the functional profile of our compounds, the effect on AQP-mediated water permeability was investigated. AQPs are a family of transmembrane proteins involved in the transport of water and other small molecules (e.g., H2O2) through cell membranes. AQP functions are thus critical in ensuring reactive oxygen species (ROS) scavenging and cell survival. […] Briefly, the osmotic water permeability of HeLa cells was measured by a stopped-flow light scattering method and expressed as a percentage of k relative.
# Osmotic water permeability was measured in the HeLa cell suspension by the stopped-flow light scattering method, as previously described. The experiments were performed at 25 °C on the stopped-flow apparatus (RX2000, Applied Photophysics, Leatherhead, UK) with a pneumatic drive accessory (DA.1, Applied Photophysics) straightforwardly coupled with a Varian Cary 50 spectrometer (Varian Australia Pty Ltd., Mulgrave, Australia). Briefly, scattered light intensity with a dead time of 6 ms was recorded at a wavelength of 450 nm. […] To evaluate the effect of the test compounds on water permeability, the HeLa cells were divided into different groups: (1) controls, cells incubated at r.t. (21 °C) in the presence of the same volume of methanol as that of the treated cells; (2) heat-stressed cells, cells heat-treated in a water thermostatic and shacking bath at 42 °C for 3 h; (3) heat-stressed cells pre-treated with the test compounds at a 20 µM final concentration (dissolved in methanol).
# [2] = tested on: MRC-5 (human normal lung fibroblasts); experiment: MTS cytotoxicity assay, MRC-5; assay type: cell-based
# Description: as §1, §2
# zebrafish embryos = experiment: In vivo toxicity in zebrafish embryos; design: species or system zebrafish (Danio rerio); details: 5 dpf; for embryo phenotype: 0.1 μM and 1 μM; for morphological score: score 5 normal to 0.5 absent; for embryo death at the highest dose: 100 μM
# Description: The in vivo toxicity was evaluated using the predictive zebrafish animal model, which is suitable for screening drugs for potential toxicity in the nervous, cardiovascular, and digestive system. Zebrafish embryos were exposed to increasing concentrations (from 0.1 to 100 μM) of compounds (R/S)-1c and (R/S)-1d immediately after the eggs’ fertilization. The mortality rate and the kind of developmental deficiencies were evaluated at 5 days post-fertilization (dpf). […] A decrease in the embryo vitality rate and an increase in the entity of damages to the vital structures became more evident at higher concentrations (Figure 7A, Table S2). Compound (R/S)-1c induced embryo death (100% of embryos) at 10 μM, whereas (R/S)-1d caused the death of 5 embryos out of 10 at the same concentration. Moreover, among the living embryos, morphological abnormalities, mainly affecting the shape of the tail, heart, and skin pigmentation, were observed (Figure 7B–E, Table S2). […] Furthermore, the swim bladder was not well inflated, and oedema was evident.
# The Tg(GFAP:GFP) zebrafish (Danio rerio) were a kind gift from the Department of Biology, University of Padova (Italy), and were maintained in a re-circulatory system at 28 °C in a light/dark cycle of 14/10 h. They were fed three times a day with dry food and Artemia. The zebrafish embryos and larvae were used for the experiments until 5 days post-fertilization (dpf); mating between 2 females and 1 male was set up the day before the test. The eggs were preserved from predation by adult fish using a plastic separator in the tanks. The eggs were collected right after spawning and used in the teratogenicity experiments. The zebrafish husbandry procedures were performed according to the Directive 2010/63/EU and in compliance with the local animal welfare regulations (authorization n. prot. 18,311/2016; released by the “Comune di Meldola”, 9 November 2016).
# The toxicity evaluation was performed as previously reported. Briefly, the eggs were collected, rinsed out with embryo medium (for 1 L of distilled water: 0.1 g sodium bicarbonate, 0.1 g instant ocean, 0.19 g calcium sulphate) and put in different Petri dishes with the same medium; only the unscathed embryos were selected. Generally, 8 embryos per untreated control and treatment concentrations were cultured. The eggs were treated with an increasing concentration of (R/S)-1c and (R/S)-1d, starting from 1 h post-fertilization. They were incubated at 28 °C for about 5 days (without changing the media) in order to allow exposure to the compounds throughout all development stages. The teratogenic effects were evaluated after 5 days from treatment with morphological and viability observations. The experiment was performed in octuplicate, and the data were assessed using a sample score sheet, as reported by Brannen KC and colleagues.
# [3] = CHME-5, concentrations ≤10 μM, 24, 48 and 72 h
# [4] = MRC-5, concentrations ≤10 μM, 24, 48 and 72 h
Structure (SMILES),"cytotoxicity ([1]; CHME-5, 100 µM, 24 h of exposure)",cell survival [1],"cytotoxicity [1, 3]","effect on percentage of differentiated PC12 cells, co-administration with PRE-084 (PC12 cells)","effect on NGF-induced neurite outgrowth, compound alone (PC12 cells)",effect on water permeability in heat-stressed HeLa cells (HeLa cells),"cytotoxicity ([2]; MRC-5, 100 µM, 24 h of exposure)","cytotoxicity [2, 4]",embryo phenotype (zebrafish embryos),morphological score (zebrafish embryos; 0.1 μM),embryo death (zebrafish embryos; 10 μM),embryo death at the highest dose (zebrafish embryos),"cytotoxicity ([1]; CHME-5, 100 µM, 24 and 48 h of exposure)","survival rate ([1]; CHME-5, 100 µM, 72 h)","effect on percentage of differentiated PC12 cells, co-administration with PRE-084 (PC12 cells; listed as (R/S)-1d)","cytotoxicity ([2]; MRC-5, 100 µM, 24 and 48 h of exposure)","survival rate ([2]; MRC-5, 100 µM, 72 h)",morphological score (zebrafish embryos; 1 μM),death of embryos (zebrafish embryos; 10 μM),morphological score (zebrafish embryos; 10 μM)
"CN(CCC(CO)c1ccc(-c2ccccc2)cc1)Cc1ccccc1 (stereo not shown) [Compound 1c, 3-([1,1’-biphenyl]-4-yl)-N-benzyl-4-hydroxy-N-methylbutanamine]",evident cytotoxic effects,reduced the survival,no cytotoxicity,significantly reduced,did not significantly enhance,in line with that of S1R antagonists,evident cytotoxic effects,no cytotoxicity,normal and vital phenotype,< 4,100 % of embryos,death of all the zebrafish embryos,,,,,,,,
"OCC(CCN1CCCCC1)c1ccc(-c2ccccc2)cc1 (stereo not shown) [Compound 1d, 2-([1,1’-biphenyl]-4-yl)-4-(piperidin-1-yl)butan-1-ol]",,reduced the survival,no cytotoxicity,,did not significantly enhance,in line with that of S1R antagonists,,no cytotoxicity,normal and vital phenotype,5,,death of all the zebrafish embryos,no significative cytotoxicity,higher than 50%,significantly reduced; also recorded: most effective,no significative cytotoxicity,higher than 50%,4,5 embryos out of 10,1

# From PMC10386076, “Discovery of RC-752, a Novel Sigma-1 Receptor Antagonist with Antinociceptive Activity: A Promising Tool for Fighting Neuropathic Pain” (Pharmaceuticals, 2023)
